Assay results published in article PMC9728188, “Cloning and Functional Characterization of Putative Escherichia coli ABC Multidrug Efflux Transporter YddA” (Journal of Microbiology and Biotechnology, 2020).

Key:
Assay type in all cases: cell-based
YddA [1] = target: T1, YddA (Escherichia coli, UniProt P31826); assay: fluorescence efflux and accumulation assays in whole cells, yddA knockout vs parent strains; also inhibits norfloxacin efflux
YddA [2] = target: T1, YddA; assay: fluorescence efflux and accumulation assays in whole cells, yddA knockout vs parent strains
YddA [3] = target: T1, YddA; assay: inhibition of norfloxacin efflux in whole cells (fluorescence)
Excerpt: inhibition of norfloxacin efflux in whole cells (fluorescence) on YddA | Efflux of norfloxacin by YddA transporter was inhibited by reserpine

T1 sequence (P31826 whole entry): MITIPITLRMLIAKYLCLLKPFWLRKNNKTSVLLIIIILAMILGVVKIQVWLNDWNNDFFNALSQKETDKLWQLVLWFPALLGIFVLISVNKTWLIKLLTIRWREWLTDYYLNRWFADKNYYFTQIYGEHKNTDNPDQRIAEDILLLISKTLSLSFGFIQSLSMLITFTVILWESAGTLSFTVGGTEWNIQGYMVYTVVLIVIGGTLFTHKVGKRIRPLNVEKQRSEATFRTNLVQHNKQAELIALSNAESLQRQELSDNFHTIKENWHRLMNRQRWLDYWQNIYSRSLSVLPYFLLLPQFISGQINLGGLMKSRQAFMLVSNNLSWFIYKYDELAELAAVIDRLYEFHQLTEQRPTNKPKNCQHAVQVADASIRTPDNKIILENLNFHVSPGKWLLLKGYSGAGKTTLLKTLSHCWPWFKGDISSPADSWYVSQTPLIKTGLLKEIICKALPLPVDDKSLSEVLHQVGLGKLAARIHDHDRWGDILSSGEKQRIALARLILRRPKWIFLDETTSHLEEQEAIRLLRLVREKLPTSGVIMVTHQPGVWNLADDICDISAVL

Structure (SMILES): CC[n+]1c(-c2ccccc2)c2cc(N)ccc2c2ccc(N)cc21 [EB, ethidium bromide]
- fluorescence efflux and accumulation assays in whole cells, yddA knockout vs par (YddA [1]): indicating that yddA knockout reduced EB efflux, which increased the accumulation of EB in cells

Structure (SMILES): CCn1cc(C(=O)O)c(=O)c2cc(F)c(N3CCNCC3)cc21 [norfloxacin]
- fluorescence efflux and accumulation assays in whole cells, yddA knockout vs par (YddA [2]): The results showed that knockout of yddA led to less norfloxacin efflux out of cells.

Structure (SMILES): COC(=O)[C@H]1[C@H]2C[C@@H]3c4[nH]c5cc(OC)ccc5c4CCN3C[C@H]2C[C@@H](OC(=O)c2cc(OC)c(OC)c(OC)c2)[C@@H]1OC [reserpine]
- IC50 (YddA [3]): 120 µM
